According to ChEMBL document CHEMBL1201862, “PubChem BioAssay data set” (2004):
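The compound was tested at five concentrations on cells cultured in 96-well plates, with a 48-hour exposure period. GI50: concentration for 50% inhibition of growth.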 Calls of active or inactive are those of the source. Cut-off read from the data, not from the text of the source: active = GI50 up to about 1.1 µM and inactive = higher.

Experiments:
Experiment in all cases: NCI anticancer screen, dose series, 48 h
SK-MEL-5 = system: SK-MEL-5
SF-268 = system: SF-268
SF-295 = system: SF-295
HL-60 = system: HL-60
NCI-H226 = system: NCI-H226
HT-29 = system: HT-29
NCI-H23 = system: NCI-H23
Malme-3M = system: Malme-3M
SNB-19 = system: SNB-19
UACC-62 = system: UACC-62
IGROV-1 = system: IGROV-1
OVCAR-8 = system: OVCAR-8
SK-MEL-28 = system: SK-MEL-28
HCT-116 = system: HCT-116
SK-MEL-2 = system: SK-MEL-2
HOP-92 = system: HOP-92
UACC-257 = system: UACC-257
KM12 = system: KM12
OVCAR-5 = system: OVCAR-5

Measured: GI50

COc1ccc(/C(Cl)=C(\C=O)c2ccc(Cl)c(Cl)c2)cc1
inactive: SK-MEL-5 13 µM | SF-268 5.3 µM | SF-295 9.12 µM | HL-60 4.12 µM | NCI-H226 13.2 µM | HT-29 4.37 µM | NCI-H23 4.4 µM | Malme-3M 16.1 µM | SNB-19 16.2 µM | UACC-62 8.2 µM | IGROV-1 17 µM | OVCAR-8 5.57 µM | SK-MEL-28 14.4 µM | HCT-116 3.83 µM | SK-MEL-2 3.52 µM | HOP-92 6.07 µM

CC(=O)O/C=C(/C=C/OC(C)=O)C(C/C=C(\C)C#CC=C(C)C)OC(C)=O (configuration not stated)
inactive: SK-MEL-5 72.6 µM | SF-268 > 100 µM | SF-295 61.5 µM | HL-60 8.51 µM | NCI-H226 > 100 µM | HT-29 30.7 µM | NCI-H23 38.6 µM | UACC-257 33.7 µM | KM12 23.1 µM | Malme-3M 72.6 µM | SNB-19 > 100 µM | UACC-62 27.4 µM | IGROV-1 30.4 µM | OVCAR-8 37 µM | OVCAR-5 > 100 µM | HCT-116 18.3 µM | SK-MEL-2 > 100 µM | HOP-92 36.6 µM

CCN1CCC(O)(c2ccc(Oc3ccc(C)cc3)cc2)C(C(=O)c2ccc(Oc3ccc(C)cc3)cc2)C1 (configuration not stated)
inactive: SK-MEL-5 8.04 µM | SF-268 17 µM | SF-295 5.69 µM | HL-60 1.68 µM | NCI-H226 14.1 µM | HT-29 3.33 µM | NCI-H23 13.7 µM | UACC-257 13.2 µM | KM12 6.37 µM | Malme-3M 14.6 µM | SNB-19 14.2 µM | UACC-62 12.1 µM | IGROV-1 12.5 µM | OVCAR-8 13.7 µM | SK-MEL-28 11.2 µM | OVCAR-5 13.9 µM | HCT-116 6.41 µM | SK-MEL-2 18 µM | HOP-92 10 µM

CCOC(=O)C(=C=C=C(c1ccccc1)c1ccccc1)C(=O)OCC
inactive: SK-MEL-5 > 10 µM | SF-268 25.8 µM | SF-295 16.3 µM | HL-60 15.4 µM | NCI-H226 15.5 µM | HT-29 19.4 µM | NCI-H23 38.5 µM | UACC-257 16.8 µM | KM12 19.6 µM | Malme-3M 19.8 µM | SNB-19 21.5 µM | UACC-62 18.5 µM | IGROV-1 18.1 µM | OVCAR-8 21.9 µM | SK-MEL-28 17.4 µM | OVCAR-5 18.1 µM | HCT-116 18.5 µM | SK-MEL-2 16.6 µM | HOP-92 15.1 µM

Cc1ccc(P(c2ccc(C)cc2)c2ccc(C)cc2)cc1
inactive: SK-MEL-5 16.6 µM | SF-268 24.3 µM | SF-295 21.4 µM | HL-60 28.8 µM | HT-29 19.4 µM | NCI-H23 27.9 µM | UACC-257 22.1 µM | KM12 15.8 µM | Malme-3M 18.3 µM | SNB-19 61.8 µM | UACC-62 21.6 µM | IGROV-1 18.8 µM | OVCAR-8 18 µM | SK-MEL-28 24.5 µM | OVCAR-5 21.3 µM | HCT-116 12.4 µM | SK-MEL-2 22.2 µM | HOP-92 5.66 µM

COc1ccc2c(c1)CCCN2CCCCCCCCCCN(CCC(C)C)CCC(C)C
inactive: SK-MEL-5 6.46 µM | SF-268 11.6 µM | SF-295 14.1 µM | HL-60 2.9 µM | NCI-H226 14 µM | HT-29 4.65 µM | NCI-H23 3.25 µM | UACC-257 14.9 µM | KM12 4.55 µM | Malme-3M 13.4 µM | SNB-19 13.9 µM | UACC-62 12.2 µM | IGROV-1 12.2 µM | SK-MEL-28 13.6 µM | OVCAR-5 14.9 µM | SK-MEL-2 9.4 µM | HOP-92 4.34 µM
